For test [1], the system named is Proteus vulgaris. Put plainly: Antibacterial activity against Proteus vulgaris MTCC 1771 after 24 hrs. Format: functional. To be noted: MTCC 1771, 24 h.
The test system of test [2] is Staphylococcus aureus. Put plainly: Antibacterial activity against methicillin-resistant Staphylococcus aureus after 24 hrs. The format is functional.
Test [3] has as its system Micrococcus luteus. Put plainly: Antibacterial activity against Micrococcus luteus MTCC 106 at 1 mg/disc after 24 hrs by disc diffusion method. The format is functional.
Test [4] deals with Shigella flexneri. The experiment in a line: Antibacterial activity against Shigella flexneri MTCC 1457 at 1 mg/disc after 24 hrs by disc diffusion method. Format: functional. In general terms: A growth-free zone around the sample is the usual read-out of agar diffusion tests.
Test [5] deals with Klebsiella pneumoniae. Put plainly: Antibacterial activity against Klebsiella pneumoniae MTCC 109 at 1 mg/disc after 24 hrs by disc diffusion method. Format: functional.
Test [6] deals with A549. Put plainly: Cytotoxicity against human A549 cells assessed as cell death at 200 ug/ml by MTT assay. Format: functional. A general note: Formazan colour is commonly taken as a measure of viable cells.
For test [7], the system named is Salmonella typhimurium. The experiment in a line: Antibacterial activity against Salmonella typhimurium MTCC 1251 at 1 mg/disc after 24 hrs by disc diffusion method. Format: functional, Salmonella enterica subsp. enterica serovar Typhimurium.
Test [8] relates to Klebsiella pneumoniae. Put plainly: Antibacterial activity against Klebsiella pneumoniae MTCC 109 after 24 hrs. To be noted: MTCC 109, 24 h. The format is functional.
Test [9] concerns A549. Put plainly: Cytotoxicity against human A549 cells assessed as cell death by MTT assay. Format: functional, cell-based.
The subject of test [10] is Klebsiella aerogenes. Put plainly: Antibacterial activity against Enterobacter aerogenes MTCC 111 at 1 mg/disc after 24 hrs by disc diffusion method. Format: functional.
Test [11] concerns Staphylococcus aureus. The experiment in a line: Antibacterial activity against methicillin-resistant Staphylococcus aureus at 1 mg/disc after 24 hrs by disc diffusion method. Format: functional.
For test [12], the system named is A549. The experiment in a line: Cytotoxicity against human A549 cells assessed as cell death at 50 ug/ml by MTT assay. Format: functional.
Test [13] deals with Candida albicans. Put plainly: Antifungal activity against Candida albicans MTCC 227 after 48 to 72 hrs. Format: functional.
Test [14] deals with Proteus vulgaris. The experiment in a line: Antibacterial activity against Proteus vulgaris MTCC 1771 at 1 mg/disc after 24 hrs by disc diffusion method. Format: functional.
Test [15] has as its system Salmonella typhimurium. Put plainly: Antibacterial activity against Salmonella typhimurium MTCC 1251 after 24 hrs. Format: functional, Salmonella enterica subsp. enterica serovar Typhimurium. To be noted: Salmonella enterica, MTCC 1251, 24 h.
The test system of test [16] is Klebsiella aerogenes. The experiment in a line: Antibacterial activity against Enterobacter aerogenes MTCC 111 after 24 hrs. Format: functional.
In test [17] the test system is Micrococcus luteus. Put plainly: Antibacterial activity against Micrococcus luteus MTCC 106 after 24 hrs. The format is functional.
Test [18] concerns Candida albicans. Put plainly: Antifungal activity against Candida albicans MTCC 227 at 1 mg/disc after 48 hrs by disc diffusion method. Format: functional.
Test [19] in a line: Antifungal activity against Malassezia pachydermatis at 1 mg/disc after 48 hrs by disc diffusion method. The format is functional.
The subject of test [20] is Staphylococcus aureus. The experiment in a line: Antibacterial activity against Staphylococcus aureus MTCC 96 after 24 hrs. Format: functional. To be noted: MTCC 96, 24 h.
The subject of test [21] is A549. Put plainly: Cytotoxicity against human A549 cells assessed as cell death at 100 ug/ml by MTT assay. The format is functional.
Test [22] has as its system Staphylococcus aureus. Put plainly: Antibacterial activity against Staphylococcus aureus MTCC 96 at 1 mg/disc after 24 hrs by disc diffusion method. Format: functional.
Test [23] relates to Shigella flexneri. Put plainly: Antibacterial activity against Shigella flexneri MTCC 1457 after 24 hrs. Format: functional. Particulars: MTCC 1457, 24 h.

The record followed here is ChEMBL document CHEMBL2331252, “Facile one-pot synthesis of novel dispirooxindole-pyrrolidine derivatives and their antimicrobial and anticancer activity against A549 human lung adenocarcinoma cancer cell line” (Bioorg Med Chem Lett, 2013).

The structures appear in SMILES notation. ≈ marks a conversion by molar mass, not a printed value. Calls of active or inactive are those of the source. The rule behind the calls is not given here.

For `C#CCN1C(=O)[C@@]2(c3ccccc31)N(C)C[C@](C#N)(C(=O)c1c[nH]c3ccccc13)[C@]21C(=O)Nc2ccccc21`, the MIC (as a rule, the lowest concentration that inhibits growth of the organism) in the test with Proteus vulgaris [1] was determined as 500 µg/mL (≈ 951 µM); against Staphylococcus aureus [2], 500 µg/mL (≈ 951 µM); with Klebsiella pneumoniae [8] it was 62.5 µg/mL (≈ 119 µM); with Salmonella typhimurium [15] it was 500 µg/mL (≈ 951 µM); against Staphylococcus aureus [20], 125 µg/mL (≈ 238 µM); against Shigella flexneri [23], 500 µg/mL (≈ 951 µM). Also, the inhibition result (in the test on Micrococcus luteus [3]; in the test with Klebsiella aerogenes [10]; in the test on Candida albicans [18]; in [19]) was “inactive” each time. The “inhibition zone (IZ)” value is listed as 8 mm in the test on Shigella flexneri [4]; 14 mm in the test on Klebsiella pneumoniae [5]; 9 mm in the test on Salmonella typhimurium [7]; 8 mm in the test on Staphylococcus aureus [11]; 10 mm in the test on Proteus vulgaris [14]; 12 mm in the test with Staphylococcus aureus [22]. Moreover, the Activity in the test on A549 [6] is recorded as 67.67%; in the test with A549 [12] it was 55.22%; in the test with A549 [21], 59.31%. Besides, the concentration for half-maximal inhibition (IC50) (usually the concentration needed to halve the response being measured) in the test with A549 [9] was found to be 50 µg/mL (≈ 95.1 µM). In addition, the MIC entry with Candida albicans [13], in the test on Klebsiella aerogenes [16] and with Micrococcus luteus [17] was “inactive” in each case.
On to `C=CCN1C(=O)[C@@]2(c3ccccc31)N(C)C[C@](C#N)(C(=O)c1c[nH]c3ccccc13)[C@]21C(=O)Nc2ccccc21`, for which the MIC in the test with Proteus vulgaris [1] is 1000 µg/mL (≈ 1900 µM); in the test on Staphylococcus aureus [2], 1000 µg/mL (≈ 1900 µM); in the test with Klebsiella pneumoniae [8], 125 µg/mL (≈ 237 µM); in the test on Candida albicans [13], 500 µg/mL (≈ 948 µM); against Salmonella typhimurium [15], 62.5 µg/mL (≈ 118 µM); in the test with Micrococcus luteus [17] (MTCC 106, 24 h), 500 µg/mL (≈ 948 µM). For the same compound, the MIC against Staphylococcus aureus [20] stood at 500 µg/mL (≈ 948 µM); with Shigella flexneri [23], 1000 µg/mL (≈ 1900 µM). In addition, the “inhibition zone (IZ)” value was found to be 10 mm in the test with Micrococcus luteus [3]; 9 mm in the test with Shigella flexneri [4]; 12 mm in the test with Klebsiella pneumoniae [5]; 16 mm with Salmonella typhimurium [7]; 9 mm in the test with Staphylococcus aureus [11]; 9 mm in the test on Proteus vulgaris [14]. Moreover, the “inhibition zone (IZ)” value is on record as 9 mm in the test with Candida albicans [18] and 11 mm in the test with Staphylococcus aureus [22]. The Activity in the test with A549 [6] is 16%; in the test with A549 [12] it was 5.61%; in the test with A549 [21] it was 8.81%. The inhibition entry (with Klebsiella aerogenes [10]; in test [19]) was “inactive” each time. Also, the MIC entry with Klebsiella aerogenes [16] is “inactive”.
As for `CN1C[C@](C#N)(C(=O)c2c[nH]c3ccccc23)[C@]2(C(=O)Nc3ccccc32)[C@@]12C(=O)Nc1ccc(Br)cc12`, the minimal inhibitory concentration (MIC) in the test with Proteus vulgaris [1] was determined as 250 µg/mL (≈ 441 µM); against Staphylococcus aureus [2] it was 500 µg/mL (≈ 883 µM); against Klebsiella pneumoniae [8] it was 500 µg/mL (≈ 883 µM); against Candida albicans [13], 500 µg/mL (≈ 883 µM); with Salmonella typhimurium [15] it was 125 µg/mL (≈ 221 µM); against Micrococcus luteus [17] (MTCC 106, 24 h) it was 1000 µg/mL (≈ 1770 µM). Also, the MIC in the test with Staphylococcus aureus [20] and in the test on Shigella flexneri [23] was 500 µg/mL (≈ 883 µM) in each case. Moreover, the “inhibition zone (IZ)” value turned out to be 9 mm in the test with Micrococcus luteus [3]; 10 mm in the test on Shigella flexneri [4]; 9 mm with Klebsiella pneumoniae [5]; 15 mm with Salmonella typhimurium [7]; 10 mm with Klebsiella aerogenes [10]; 9 mm in the test on Staphylococcus aureus [11]. In addition, the figures for the “inhibition zone (IZ)” value in the test on Proteus vulgaris [14], with Candida albicans [18] and in the test on Staphylococcus aureus [22] were 12 mm, 11 mm and 11 mm, respectively. The Activity stood at 15.98% with A549 [6], 3.43% in the test on A549 [12] and 9.34% in the test on A549 [21]. Moreover, the MIC result with Klebsiella aerogenes [16] is “inactive”. Besides, in [19], the inhibition result is “inactive”.
As for `CCCCCCN1C(=O)[C@@]2(c3ccccc31)N(C)C[C@](C#N)(C(=O)c1c[nH]c3ccccc13)[C@]21C(=O)Nc2ccccc21`, the MIC in the test with Proteus vulgaris [1] was found to be 500 µg/mL (≈ 875 µM); against Staphylococcus aureus [2] it was 500 µg/mL (≈ 875 µM); with Klebsiella pneumoniae [8] it was 125 µg/mL (≈ 219 µM); in the test with Salmonella typhimurium [15], 500 µg/mL (≈ 875 µM); in the test with Klebsiella aerogenes [16] (MTCC 111, 24 h), 500 µg/mL (≈ 875 µM); against Micrococcus luteus [17] (MTCC 106, 24 h), 500 µg/mL (≈ 875 µM). Further, the minimum inhibitory concentration (MIC) against Staphylococcus aureus [20] is 125 µg/mL (≈ 219 µM); against Shigella flexneri [23], 500 µg/mL (≈ 875 µM). In addition, the “inhibition zone (IZ)” value with Micrococcus luteus [3] is 10 mm; with Shigella flexneri [4], 10 mm; with Klebsiella pneumoniae [5] it was 11 mm; in the test on Salmonella typhimurium [7], 9 mm; in the test on Klebsiella aerogenes [10], 9 mm; with Staphylococcus aureus [11], 10 mm. The “inhibition zone (IZ)” value in the test on Proteus vulgaris [14] is recorded as 9 mm; in the test on Staphylococcus aureus [22], 11 mm. Further, the values for the Activity with A549 [6], with A549 [12] and in the test on A549 [21] were 62.03%, 48.03% and 56.74%, respectively. For the same compound, the MIC result in the test on Candida albicans [13] was “inactive”. Also, the inhibition entry (in the test with Candida albicans [18]; in test [19]) was “inactive” in each case.
